Experimental findings from ChEMBL document CHEMBL4622864, “Synthesis and biological evaluation of quinoxaline derivatives as specific c-Met kinase inhibitors” (Bioorg Med Chem Lett, 2020) are described below.

Series [1] concerns MKN-45. Description: Antiproliferative activity against human MKN45 cells overexpressing c-MET assessed as reduction in cell proliferation. Type of series: functional, cell-based.
For series [2], the system named is MKN-45. As to the kind of experiment: Antitumor activity against human MKN45 cells xenografted in nude mouse assessed as tumor growth inhibition at 20 mg/kg, po administered once daily for 14 days relative to control. The format is functional. The note with it: MKN-45, po, 336 h, read-out: TGI.
Series [3] concerns the target T1, Hepatocyte growth factor receptor (Homo sapiens, UniProt P08581). Description: Inhibition of c-Met (unknown origin) by ADP-Glo kinase assay. On the technique in general: ADP-Glo first removes unused ATP, then detects ADP through luciferase.
Series [4] addresses Mast/stem cell growth factor receptor Kit (Homo sapiens) (UniProt P10721). Description: Inhibition of C-kit (unknown origin) at 100 nM relative to control.
The target of series [5] is Proto-oncogene tyrosine-protein kinase receptor Ret (Homo sapiens) (UniProt P07949). Description: Inhibition of RET (unknown origin) at 100 nM relative to control.
For series [6], the target named is Angiopoietin-1 receptor (Homo sapiens) (UniProt Q02763). Description: Inhibition of human TIE2 at 100 nM relative to control.
The next series concerns the target CYP1A2 (Homo sapiens, UniProt P05177). Description: Inhibition of CYP1A2 (unknown origin) at 10 uM relative to control. The format is ADME.
For series [7], the target named is Vascular endothelial growth factor receptor 2 (Homo sapiens) (UniProt P35968). As to the kind of experiment: Inhibition of human VEGFR2 at 10 nM relative to control.
Series [8] can be described thus: Metabolic stability in human microsomes assessed as parent compound remaining measured after 30 mins. The format is ADME, Microsome. The note with it: read-out: Stability.
Another series concerns the target CYP2D6 (Homo sapiens, UniProt P10635). As to the kind of experiment: Inhibition of CYP2D6 (unknown origin) at 10 uM relative to control. Type of series: ADME.
In series [9] the target is Tyrosine-protein kinase Lck (Homo sapiens) (UniProt P06239). Description: Inhibition of LCK (unknown origin) at 100 nM relative to control.
Series [10] deals with Insulin-like growth factor 1 receptor (Homo sapiens) (UniProt P08069). Description: Inhibition of IGF1R (unknown origin) at 10 nM relative to control.
For series [11], the target named is Macrophage-stimulating protein receptor (Homo sapiens) (UniProt Q04912). Description: Inhibition of RON (unknown origin) at 100 nM relative to control.
Series [12] deals with Macrophage colony-stimulating factor 1 receptor (Homo sapiens) (UniProt P07333). As to the kind of experiment: Inhibition of CSF1R (unknown origin) at 10 nM relative to control.
Series [13] has as its target T1, Hepatocyte growth factor receptor. As to the kind of experiment: Inhibition of human c-MET at 10 nM relative to control.
Series [14] concerns the target Tyrosine-protein kinase receptor UFO (Homo sapiens) (UniProt P30530). As to the kind of experiment: Inhibition of AXL (unknown origin) at 10 nM relative to control.
The target of series [15] is Fibroblast growth factor receptor 2 (Homo sapiens) (UniProt P21802). As to the kind of experiment: Inhibition of FGFR2 (unknown origin) at 100 nM relative to control.
Another series has as its target CYP3A4 (Homo sapiens, UniProt P08684). Description: Inhibition of CYP3A4 (unknown origin) at 10 uM relative to control. The format is ADME.
The target in series [16] is Fibroblast growth factor receptor 1 (Homo sapiens) (UniProt P11362). Description: Inhibition of FGFR1 (unknown origin) at 100 nM relative to control.
Series [17] concerns the target Platelet-derived growth factor receptor beta (Homo sapiens) (UniProt P09619). Description: Inhibition of human PDGFRbeta at 100 nM relative to control.
In another series the target is CYP2C9 (Homo sapiens, UniProt P11712). As to the kind of experiment: Inhibition of CYP2C9 (unknown origin) at 10 uM relative to control. Type of series: ADME.
For series [18], the target named is Platelet-derived growth factor receptor alpha (Homo sapiens) (UniProt P16234). Description: Inhibition of PDGFRalpha (unknown origin) at 100 nM relative to control.
Series [19] concerns the target Fibroblast growth factor receptor 1 (Homo sapiens) (UniProt P11362). As to the kind of experiment: Inhibition of FGFR1 (unknown origin) at 10 nM relative to control.
For series [20], the target named is Tyrosine-protein kinase receptor UFO (Homo sapiens) (UniProt P30530). Description: Inhibition of AXL (unknown origin) at 100 nM relative to control.
For series [21], the target named is Vascular endothelial growth factor receptor 3 (Homo sapiens) (UniProt P35916). Description: Inhibition of VEGFR3 (unknown origin) at 100 nM relative to control.
In series [22] the target is Macrophage colony-stimulating factor 1 receptor (Homo sapiens) (UniProt P07333). As to the kind of experiment: Inhibition of CSF1R (unknown origin) at 100 nM relative to control.
Series [23] addresses Proto-oncogene tyrosine-protein kinase Src (Homo sapiens) (UniProt P12931). As to the kind of experiment: Inhibition of c-SRC (unknown origin) at 100 nM relative to control.
Series [24] can be described thus: Metabolic stability in rat microsomes assessed as parent compound remaining measured after 30 mins. Type of series: ADME, Microsome. The conditions noted are these: read-out: Stability.
Series [25] addresses Angiopoietin-1 receptor (Homo sapiens) (UniProt Q02763). Description: Inhibition of human TIE2 at 10 nM relative to control.
The test system of series [26] is Tyrosine-protein kinase ABL1 (Homo sapiens), P00519 [T315I]. As to the kind of experiment: Inhibition of ABL T315I mutant (unknown origin) 100 nM relative to control.
In series [27] the target is Proto-oncogene tyrosine-protein kinase Src (Homo sapiens) (UniProt P12931). Description: Inhibition of c-SRC (unknown origin) at 10 nM relative to control.
The nature of series [28]: Metabolic stability in mouse microsomes assessed as parent compound remaining measured after 30 mins. The note with it: read-out: Stability. The format is ADME, Microsome.
A further series concerns the target CYP2C19 (Homo sapiens, UniProt P33261). As to the kind of experiment: Inhibition of CYP2C19 (unknown origin) at 10 uM relative to control. The format is ADME.
For series [29], the target named is Receptor-type tyrosine-protein kinase FLT3 (Homo sapiens) (UniProt P36888). As to the kind of experiment: Inhibition of FLT3 (unknown origin) at 100 nM relative to control.
Series [30] has as its target T1, Hepatocyte growth factor receptor. As to the kind of experiment: Inhibition of human c-MET at 100 nM relative to control.
The test system of series [31] is Tyrosine-protein kinase ABL1 (Homo sapiens), P00519 [T315I]. As to the kind of experiment: Inhibition of ABL T315I mutant (unknown origin) 10 nM relative to control.
Series [32] deals with Vascular endothelial growth factor receptor 3 (Homo sapiens) (UniProt P35916). As to the kind of experiment: Inhibition of VEGFR3 (unknown origin) at 10 nM relative to control.
Series [33] addresses Mast/stem cell growth factor receptor Kit (Homo sapiens) (UniProt P10721). Description: Inhibition of C-kit (unknown origin) at 10 nM relative to control.
In series [34] the target is Platelet-derived growth factor receptor alpha (Homo sapiens) (UniProt P16234). Description: Inhibition of PDGFRalpha (unknown origin) at 10 nM relative to control.
For series [35], the target named is ALK tyrosine kinase receptor (Homo sapiens) (UniProt Q9UM73). As to the kind of experiment: Inhibition of ALK (unknown origin) at 10 nM relative to control.
Series [36] deals with MKN-45. As to the kind of experiment: Antitumor activity against human MKN45 cells xenografted in po dosed nude mouse assessed as tumor growth inhibition administered once daily for 14 days. Type of series: functional, organism-based. On the technique in general: In xenograft studies the graft and the host belong to different species.
The target in series [37] is Vascular endothelial growth factor receptor 1 (Homo sapiens) (UniProt P17948). Description: Inhibition of VEGFR1 (unknown origin) at 100 nM relative to control.
The target of series [38] is Macrophage-stimulating protein receptor (Homo sapiens) (UniProt Q04912). As to the kind of experiment: Inhibition of RON (unknown origin) at 10 nM relative to control.

T1 sequence (P08581 whole entry): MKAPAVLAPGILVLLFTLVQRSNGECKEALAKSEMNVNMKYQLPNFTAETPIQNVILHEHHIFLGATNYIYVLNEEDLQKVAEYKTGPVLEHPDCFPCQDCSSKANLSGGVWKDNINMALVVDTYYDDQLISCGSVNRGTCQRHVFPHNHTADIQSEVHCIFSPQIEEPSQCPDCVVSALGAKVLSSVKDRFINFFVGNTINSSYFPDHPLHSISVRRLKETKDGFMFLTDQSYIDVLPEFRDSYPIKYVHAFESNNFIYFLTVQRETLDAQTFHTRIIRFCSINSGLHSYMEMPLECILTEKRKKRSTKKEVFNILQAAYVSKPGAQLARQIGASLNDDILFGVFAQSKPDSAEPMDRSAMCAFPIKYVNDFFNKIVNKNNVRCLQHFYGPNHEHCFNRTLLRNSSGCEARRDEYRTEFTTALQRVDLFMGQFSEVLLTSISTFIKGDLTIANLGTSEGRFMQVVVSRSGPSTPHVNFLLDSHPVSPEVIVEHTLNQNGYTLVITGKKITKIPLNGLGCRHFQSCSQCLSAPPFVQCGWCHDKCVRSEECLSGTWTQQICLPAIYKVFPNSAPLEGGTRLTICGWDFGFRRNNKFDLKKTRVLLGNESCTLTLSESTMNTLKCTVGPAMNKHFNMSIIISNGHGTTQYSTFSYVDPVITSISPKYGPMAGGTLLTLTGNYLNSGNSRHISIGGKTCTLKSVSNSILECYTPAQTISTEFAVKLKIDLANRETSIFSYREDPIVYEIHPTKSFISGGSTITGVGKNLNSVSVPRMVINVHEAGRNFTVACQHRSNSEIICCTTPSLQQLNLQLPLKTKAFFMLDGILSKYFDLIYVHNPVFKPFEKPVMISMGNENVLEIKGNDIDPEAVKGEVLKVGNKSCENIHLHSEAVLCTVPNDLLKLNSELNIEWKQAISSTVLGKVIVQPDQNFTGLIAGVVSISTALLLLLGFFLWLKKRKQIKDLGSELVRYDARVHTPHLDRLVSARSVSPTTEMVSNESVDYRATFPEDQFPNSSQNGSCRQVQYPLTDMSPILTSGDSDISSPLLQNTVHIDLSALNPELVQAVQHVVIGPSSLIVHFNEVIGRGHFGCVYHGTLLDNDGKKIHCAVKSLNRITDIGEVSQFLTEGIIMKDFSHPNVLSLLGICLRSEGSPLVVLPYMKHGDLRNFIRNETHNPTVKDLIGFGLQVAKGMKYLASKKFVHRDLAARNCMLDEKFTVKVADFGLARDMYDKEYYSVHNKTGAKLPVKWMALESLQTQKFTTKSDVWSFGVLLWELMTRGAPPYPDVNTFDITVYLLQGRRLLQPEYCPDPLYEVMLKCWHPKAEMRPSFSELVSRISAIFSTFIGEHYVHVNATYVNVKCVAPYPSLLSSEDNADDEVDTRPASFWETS
Sequence of Platelet-derived growth factor receptor alpha (Homo sapiens) (P16234 whole entry): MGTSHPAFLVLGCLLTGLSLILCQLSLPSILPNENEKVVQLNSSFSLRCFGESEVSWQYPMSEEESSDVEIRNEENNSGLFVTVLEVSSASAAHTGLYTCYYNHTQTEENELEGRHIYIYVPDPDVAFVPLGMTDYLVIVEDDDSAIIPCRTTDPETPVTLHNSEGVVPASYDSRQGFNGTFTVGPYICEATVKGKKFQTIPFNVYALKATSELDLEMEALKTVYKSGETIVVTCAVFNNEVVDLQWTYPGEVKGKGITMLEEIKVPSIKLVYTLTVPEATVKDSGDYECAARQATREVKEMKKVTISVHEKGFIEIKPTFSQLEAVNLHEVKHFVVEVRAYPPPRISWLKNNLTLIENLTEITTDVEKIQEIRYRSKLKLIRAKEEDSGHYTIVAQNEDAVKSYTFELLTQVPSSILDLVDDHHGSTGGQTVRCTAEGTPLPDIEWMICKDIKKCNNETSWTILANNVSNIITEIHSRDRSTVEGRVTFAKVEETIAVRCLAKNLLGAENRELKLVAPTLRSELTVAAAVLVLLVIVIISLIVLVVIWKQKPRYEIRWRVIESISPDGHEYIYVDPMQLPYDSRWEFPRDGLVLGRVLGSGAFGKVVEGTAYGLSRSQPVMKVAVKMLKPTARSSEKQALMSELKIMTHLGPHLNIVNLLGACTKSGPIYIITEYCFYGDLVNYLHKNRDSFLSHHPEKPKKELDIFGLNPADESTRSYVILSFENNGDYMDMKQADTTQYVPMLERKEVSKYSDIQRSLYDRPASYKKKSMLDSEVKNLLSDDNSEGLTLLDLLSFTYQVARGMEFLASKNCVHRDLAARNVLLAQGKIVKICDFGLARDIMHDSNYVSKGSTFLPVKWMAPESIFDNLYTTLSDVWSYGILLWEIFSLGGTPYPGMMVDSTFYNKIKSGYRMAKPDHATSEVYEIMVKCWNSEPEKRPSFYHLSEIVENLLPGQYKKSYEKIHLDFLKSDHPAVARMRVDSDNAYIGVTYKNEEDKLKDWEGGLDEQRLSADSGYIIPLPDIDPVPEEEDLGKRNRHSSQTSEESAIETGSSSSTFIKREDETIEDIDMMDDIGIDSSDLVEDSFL
Sequence of Mast/stem cell growth factor receptor Kit (Homo sapiens) (P10721 whole entry): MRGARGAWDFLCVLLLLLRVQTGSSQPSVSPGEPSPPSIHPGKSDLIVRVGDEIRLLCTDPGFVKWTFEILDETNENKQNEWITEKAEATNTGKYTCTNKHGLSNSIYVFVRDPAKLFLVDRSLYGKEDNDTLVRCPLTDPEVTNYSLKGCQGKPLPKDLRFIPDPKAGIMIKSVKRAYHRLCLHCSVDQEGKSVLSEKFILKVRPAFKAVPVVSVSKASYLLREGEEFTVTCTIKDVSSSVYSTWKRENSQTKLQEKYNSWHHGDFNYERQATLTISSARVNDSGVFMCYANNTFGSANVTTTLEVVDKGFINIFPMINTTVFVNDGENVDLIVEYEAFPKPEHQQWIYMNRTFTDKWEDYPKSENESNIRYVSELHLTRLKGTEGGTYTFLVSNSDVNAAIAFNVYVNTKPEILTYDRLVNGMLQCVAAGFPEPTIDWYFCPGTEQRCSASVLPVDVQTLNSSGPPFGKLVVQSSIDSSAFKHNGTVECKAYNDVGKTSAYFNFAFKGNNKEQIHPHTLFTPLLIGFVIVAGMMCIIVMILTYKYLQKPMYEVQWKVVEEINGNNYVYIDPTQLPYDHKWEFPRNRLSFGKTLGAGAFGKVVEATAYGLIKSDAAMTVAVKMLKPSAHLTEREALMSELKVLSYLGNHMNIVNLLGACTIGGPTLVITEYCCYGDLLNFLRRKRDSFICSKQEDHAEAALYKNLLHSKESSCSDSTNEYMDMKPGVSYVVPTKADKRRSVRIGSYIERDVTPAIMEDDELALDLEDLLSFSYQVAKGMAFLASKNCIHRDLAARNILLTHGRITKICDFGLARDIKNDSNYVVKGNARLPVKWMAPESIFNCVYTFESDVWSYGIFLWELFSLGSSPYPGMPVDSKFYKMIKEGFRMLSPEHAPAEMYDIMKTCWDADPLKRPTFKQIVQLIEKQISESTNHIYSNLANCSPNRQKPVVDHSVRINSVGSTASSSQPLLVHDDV
Sequence of Tyrosine-protein kinase receptor UFO (Homo sapiens) (P30530 whole entry): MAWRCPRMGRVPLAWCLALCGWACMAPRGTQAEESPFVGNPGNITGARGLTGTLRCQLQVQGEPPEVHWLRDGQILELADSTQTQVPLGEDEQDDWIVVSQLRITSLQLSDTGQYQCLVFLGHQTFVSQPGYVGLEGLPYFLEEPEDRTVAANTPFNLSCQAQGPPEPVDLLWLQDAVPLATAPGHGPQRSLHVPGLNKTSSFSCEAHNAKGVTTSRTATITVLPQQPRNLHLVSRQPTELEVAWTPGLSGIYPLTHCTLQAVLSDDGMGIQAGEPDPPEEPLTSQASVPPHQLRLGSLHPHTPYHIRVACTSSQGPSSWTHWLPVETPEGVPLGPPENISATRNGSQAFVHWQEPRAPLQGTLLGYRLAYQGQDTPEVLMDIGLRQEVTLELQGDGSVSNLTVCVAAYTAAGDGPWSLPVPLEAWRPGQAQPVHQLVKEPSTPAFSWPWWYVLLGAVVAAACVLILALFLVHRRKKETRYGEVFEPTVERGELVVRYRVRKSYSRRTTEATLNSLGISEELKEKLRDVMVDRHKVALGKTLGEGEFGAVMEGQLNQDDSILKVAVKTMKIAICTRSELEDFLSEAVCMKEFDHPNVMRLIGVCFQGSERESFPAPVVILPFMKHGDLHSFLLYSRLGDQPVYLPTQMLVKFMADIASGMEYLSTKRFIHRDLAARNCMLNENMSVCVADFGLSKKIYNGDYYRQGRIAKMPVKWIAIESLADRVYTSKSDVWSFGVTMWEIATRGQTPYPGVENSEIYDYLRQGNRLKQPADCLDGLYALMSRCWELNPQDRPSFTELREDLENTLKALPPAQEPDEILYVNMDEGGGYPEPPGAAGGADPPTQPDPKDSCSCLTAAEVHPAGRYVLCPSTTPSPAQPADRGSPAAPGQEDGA
Sequence of Proto-oncogene tyrosine-protein kinase Src (Homo sapiens) (P12931 2-536 limits assumed): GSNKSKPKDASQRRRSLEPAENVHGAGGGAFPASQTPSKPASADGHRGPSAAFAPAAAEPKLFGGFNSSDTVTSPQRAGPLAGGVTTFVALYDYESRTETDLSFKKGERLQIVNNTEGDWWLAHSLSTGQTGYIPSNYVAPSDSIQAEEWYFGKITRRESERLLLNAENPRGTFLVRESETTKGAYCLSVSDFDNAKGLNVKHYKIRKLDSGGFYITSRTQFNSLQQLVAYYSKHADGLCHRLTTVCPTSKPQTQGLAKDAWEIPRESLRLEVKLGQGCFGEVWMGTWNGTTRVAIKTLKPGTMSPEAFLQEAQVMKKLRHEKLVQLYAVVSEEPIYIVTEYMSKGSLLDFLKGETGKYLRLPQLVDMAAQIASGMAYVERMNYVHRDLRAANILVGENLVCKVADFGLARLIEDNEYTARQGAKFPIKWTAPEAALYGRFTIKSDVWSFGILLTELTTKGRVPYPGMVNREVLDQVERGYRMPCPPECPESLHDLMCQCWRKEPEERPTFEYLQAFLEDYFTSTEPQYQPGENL

In the case of `C[C@@H](Oc1cc(-c2cnn(C3CCNCC3)c2)cnc1N)c1c(Cl)ccc(F)c1Cl` [CRIZOTINIB], the IC50 (as a rule, the concentration at which inhibition is half-maximal) in the series on MKN-45 [1] lay in the range of 0.0091 to 0.038 µM. Besides, the inhibition in vivo at 20 mg/kg in the series on MKN-45 [2] came to 29%.
For `C[C@@H](Oc1cncc(-c2cnn(C3CCN(CC(N)=O)CC3)c2)c1)c1c(Cl)ccc(F)c1Cl`, the IC50 in the series with MKN-45 [1] came to 0.113 µM.
As for `CC(=O)N1CCC(n2cc(-c3cnc(F)c(O[C@H](C)c4c(Cl)ccc(F)c4Cl)c3)cn2)CC1`, in the series with MKN-45 [1], the IC50 stood at 0.077 µM.
For `CC(C)N1CCC(n2cc(-c3cncc(O[C@H](C)c4c(Cl)ccc(F)c4Cl)c3)cn2)CC1`, the half-maximal inhibitory concentration (IC50) in the series on MKN-45 [1] is 0.132 µM.
On the same count and under the same terms, the value for `CC(=O)OCCn1cc(-c2cnc3ccc(O[C@H](C)c4c(Cl)ccc(F)c4Cl)cc3n2)cn1` was 0.252 µM; that for `C[C@@H](Oc1ccc2ncc(-c3cnn(C)c3)nc2c1)c1c(Cl)ccc(F)c1Cl` was 0.735 µM.
For `C[C@H](Oc1cncc(-c2cnn(C3CCNCC3)c2)c1)c1c(Cl)ccc(F)c1Cl`, the figures for the IC50 (in the series with MKN-45 [1]; in [3]) were 0.797 µM and 0.092 µM, respectively.
As for `C[C@@H](Oc1cncc(-c2cnn(C3CCN(S(C)(=O)=O)CC3)c2)c1)c1c(Cl)ccc(F)c1Cl`, in the series on MKN-45 [1], the half-inhibitory concentration (IC50) worked out at 0.243 µM.
For the compound `C[C@@H](Oc1cc(-c2cnn(C3CCNCC3)c2)cnc1F)c1c(Cl)ccc(F)c1Cl`, the IC50 in the series with MKN-45 [1] was determined as 0.114 µM.
Same read-out and setting: to `C[C@@H](Oc1cncc(-c2cnn(C3CCN(C)CC3)c2)c1)c1c(Cl)ccc(F)c1Cl` belongs 0.227 µM; to `C[C@@H](Oc1cncc(-c2cnn(C3CCN(CC4CC4)CC3)c2)c1)c1c(Cl)ccc(F)c1Cl`, 0.306 µM.
Still for that read-out and setting: the value for `CC(=O)N1CCC(n2cc(-c3cncc(O[C@H](C)c4c(Cl)ccc(F)c4Cl)c3)cn2)CC1` was 0.117 µM; that for `C[C@@H](Oc1ccc2ncc(-c3cnn(CCO)c3)nc2c1)c1c(Cl)ccc(F)c1Cl` was 0.196 µM.
As for `C[C@@H](Oc1cncc(-c2cnn(C3CCNCC3)c2)c1)c1c(Cl)ccc(F)c1Cl`, the inhibition – broadly, the drop in the measured response relative to a control, in per cent – is 4% in series [4]; -3% in series [5]; 33% in series [6]; -4% in series [7]; 47% in [9]; -4% in series [10]. Further, the inhibition in [11] is 49%; in series [12], 15%; in series [13], 80%; in series [14], 17%; in series [15], 0%; in series [16], -5%. In addition, the inhibition is -10% in series [17]; -4% in series [18]; -7% in series [19]; 75% in series [20]; 0% in series [21]; 67% in series [22]. In addition, the inhibition in [23] is -7%; in [25] it was 2%; in series [26], 63%; in series [27], -10%; in series [29] it was 8%; in [30], 100%. Besides, the inhibition in [31] was 43%; in [32], -5%; in series [33] it was 0%; in series [34], 3%; in series [35], 31%; in series [37], -1%. Further, the inhibition in series [38] is -9%. The inhibition at 10 µM against CYP1A2 was 55%; against CYP2D6, 28%; against CYP3A4 it was 76%; against CYP2C9, 79%; at CYP2C19, 63%. For the same compound, the remaining at 0.5 h in series [8] was found to be 94%; in [24] it was 85%; in [28] it was 96%. Moreover, the values for the IC50 (with MKN-45 [1]; in series [3]) were 0.175 µM and 0.006 µM, respectively. The inhibition in vivo at 20 mg/kg with MKN-45 [2] amounted to 48%. Further, in the series with MKN-45 [36], the TGI result was “Dose-dependent effect”.
